This note sets out measurements from patent US20230087118A1, “IMIDAZO[1,2-a][sequence] DERIVATIVES AND THEIR USE IN THE TREATMENT OF DISEASE” (priority 2019, published 2023).

In test [1] the target is T1, IRAK4 (Homo sapiens, UniProt Q9NWZ3).
T1 sequence (Q9NWZ3 1-460): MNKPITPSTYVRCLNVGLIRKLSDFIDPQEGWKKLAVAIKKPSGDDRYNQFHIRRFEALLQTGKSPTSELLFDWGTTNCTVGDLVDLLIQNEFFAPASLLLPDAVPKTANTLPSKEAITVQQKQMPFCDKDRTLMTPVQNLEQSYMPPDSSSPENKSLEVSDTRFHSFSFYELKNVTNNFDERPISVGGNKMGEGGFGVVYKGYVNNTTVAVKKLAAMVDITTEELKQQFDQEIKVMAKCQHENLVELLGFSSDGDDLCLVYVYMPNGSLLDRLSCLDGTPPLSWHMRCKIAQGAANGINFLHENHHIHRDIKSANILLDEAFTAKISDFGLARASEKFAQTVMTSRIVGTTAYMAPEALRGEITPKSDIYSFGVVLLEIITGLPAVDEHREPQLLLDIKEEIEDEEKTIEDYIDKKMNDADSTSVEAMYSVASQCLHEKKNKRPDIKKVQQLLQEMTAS
The test can be described thus: 2-hour 10 μM ATP Biochemical Assay (MesoScale Detection format; IRAK4 phosphorylation of biotin labeled IRAK1 activation loop peptide). How it is done:
Compounds of the invention were assessed for their ability to inhibit IRAK4 activity. The inhibitory properties of the compounds of the invention described herein can be evidenced by testing in any one of the following assays.
The 2-hour 10 μM ATP Biochemical Assay employs a MesoScale Detection (MSD) format. The kinase reaction is based on the IRAK4 phosphorylation of a biotin labeled peptide (IRAK1 activation loop sequence 360-389).
The kinase reaction in 30 μl is carried out in wells of a 384 well polypropylene assay plate, with 0.1 nM IRAK4, 1.6 μM of biotinylated peptide substrate and 10 μM ATP in 50 mM Hepes, pH 7.5, 60 mM NaCl, 5 mM MgCl2, 0.25 mM MnCl2, 2 mM DTT, 0.01% BSA, and 1% DMSO (from compound DMSO stocks), for 2 hour at room temperature. The activity is quenched with 11 μl of 70 mM EDTA, pH 8.
To detect the phosphorylated biotinylated peptide substrate, 30 μl of the quenched reaction mixture is added to equivalent wells of a 384 well streptavidin coated MesoScale plate (Meso Scale Discovery #L21SA-1). After a 1 hour incubation of the plate for 1 hour at room temperature with gentle mixing, the plate wells are washed 3 times with 50 mM Tris, pH 7.5, 150 mM NaCl, 0.02% Tween-20.
A 25 μl volume of 1:500 anti-P-Threonine Rabbit polyclonal Antibody plus 1:500 Goat-anti-Rabbit Sulfo Tag Antibody (Meso Scale Discovery R32AB-1) in 50 mM Tris, pH 7.5, 150 mM NaCl, 0.02% Tween-20 plus 2% BSA is then added to each well. After a 1-hour incubation of the plate for 1 hour at room temperature with gentle mixing, the plate wells are washed, 3 times with 50 mM Tris, pH 7.5, 150 mM NaCl, 0.02% Tween-20. A 40 μl volume of 2× MSD Read Buffer (Meso Scale Discovery R92TC-1) is added to each well, and the plate is read immediately in an MSD Plate Reader (Meso Scale Discovery).

In test [2] the target is T1, IRAK4. The test can be described thus: biochemical.
The mark [3] stands for this setting: IRAK4 Biochemical Assay (1 mM ATP, 2 h) IC50 (μM), 1 mM ATP, 2 h, 100 pM IRAK4.

As usually defined, the IC50 is the concentration at which inhibition is half-maximal. For the compound `COc1cc2nc(C3CCOCC3)cn2cc1C(=O)Nc1cccc2c1OCCC2` [Example 162], the figures for the IC50 on IRAK4 [1] (0.1 nM IRAK4) and against IRAK4 [2] were 1 nM and 0.0016 µM, respectively. Taken in the same sequence, the figures for `COc1cc2nc(C3CCOCC3)cn2cc1C(=O)Nc1cccc(C(F)(F)F)c1C` [Example 142] were 14 nM and 0.0383 µM.

In the case of `COc1cc2nc(C3CCOCC3)cn2cc1C(=O)Nc1ccn(C(F)F)n1` [Example 48], the values for the IC50 at IRAK4 [1] (0.1 nM IRAK4) and against IRAK4 [2] (setting [3]) were 13 nM and 0.04 µM, respectively. Regarding `COc1cc2nc(C3CCOCC3)cn2cc1C(=O)Nc1ccccn1` [Example 146], the values for the IC50 against IRAK4 [1] (0.1 nM IRAK4) and against IRAK4 [2] were 9 nM and 0.0311 µM, respectively. The matching figures for `COc1cc2nc(C3CCOCC3)cn2cc1C(=O)Nc1ccccc1F` [Example 147]: 10 nM and 0.0417 µM.

`COc1cc2nc(C3CCOCC3)cn2cc1C(=O)Nc1cccc(F)c1Cl` [Example 173]: the IC50 on IRAK4 [1] (0.1 nM IRAK4) stood at 4 nM; on IRAK4 [2], 0.016 µM. For `CCOc1cc2nc(C[C@H]3CCOC3)cn2cc1C(=O)Nc1cccc(C(F)F)n1` (single isomer, unassigned) [Example 64], the IC50 is 1 nM against IRAK4 [1] (0.1 nM IRAK4) and 0.0017 µM against IRAK4 [2]. The matching figures for `COc1cc2nc(C3CCOCC3)cn2cc1C(=O)Nc1cccc(C(C)(F)F)c1` [Example 145]: 13 nM and 0.0419 µM. In the case of `COc1cccc(NC(=O)c2cn3cc(C4CC5(CCOC5)C4)nc3cc2OC)n1` (stereo not shown) [Example 11], the IC50 against IRAK4 [1] (0.1 nM IRAK4) is 2 nM; on IRAK4 [2] (setting [3]), 0.0034 µM. For `COc1cc2nc(C3CCOCC3)cn2cc1C(=O)Nc1cccc2c1OCC2` [Example 179], the IC50 against IRAK4 [1] (0.1 nM IRAK4) is 4 nM; against IRAK4 [2], 0.0089 µM. With `COc1cccc(NC(=O)c2cn3cc(C4CC(OC)C4)nc3cc2OC)n1` (stereo not shown) [Example 8], the IC50 at IRAK4 [1] (0.1 nM IRAK4) stood at 9 nM; at IRAK4 [2] (setting [3]), 0.0263 µM. As to `COc1cc2nc(C3CCOCC3)cn2cc1C(=O)Nc1cccc(Cl)c1` [Example 144], the IC50 against IRAK4 [1] (0.1 nM IRAK4) came out at 7 nM; against IRAK4 [2] it was 0.0251 µM.

`COc1cc2nc(C3CCOCC3)cn2cc1C(=O)Nc1cccc(C(F)(F)CF)c1` [Example 122]: the IC50 on IRAK4 [1] (0.1 nM IRAK4) turned out to be 15 nM; on IRAK4 [2], 0.0579 µM. Taken in the same sequence, the figures for `COc1cc2nc(C3C4COCC43)cn2cc1C(=O)Nc1cccc(C(F)(F)F)n1` (stereo not shown) [Example 32] were 8 nM and 0.013 µM. Taken in the same sequence, the figures for `COc1cc2nc(C3CCOCC3)cn2cc1C(=O)Nc1cccc2c1CCO2` [Example 107] were 13 nM and 0.04 µM. On to `COc1cc2nc(C3CCOCC3)cn2cc1C(=O)Nc1ccccc1OC(C)C` [Example 168], for which the IC50 at IRAK4 [1] (0.1 nM IRAK4) is 11 nM; against IRAK4 [2], 0.0378 µM. Take `COc1cc2nc(C3CCOCC3)cn2cc1C(=O)Nc1cccc(Cl)c1C` [Example 174]: the IC50 amounted to 7 nM at IRAK4 [1] (0.1 nM IRAK4) and 0.0477 µM on IRAK4 [2]. Taken in the same sequence, the figures for `COc1cccc(NC(=O)c2cn3cc(CC4CCOC4)nc3cc2OC)n1` (stereo not shown) [Example 24] were 7 nM and 0.021 µM.

Take `COc1cc2nc(C3CCC(OC)C3)cn2cc1C(=O)Nc1cccc(C(F)(F)F)n1` (stereo not shown) [Example 41]: the IC50 was 5 nM against IRAK4 [1] (0.1 nM IRAK4) and 0.0157 µM against IRAK4 [2] (setting [3]). Taken in the same sequence, the figures for `COc1cccc(NC(=O)c2cn3cc(C4CC45CCCCO5)nc3cc2OC)n1` (stereo not shown) [Example 9] were 9 nM and 0.0242 µM. As for `COc1cc2nc(C3CC34CCOCC4)cn2cc1C(=O)Nc1cccc(C(F)(F)F)n1` (stereo not shown) [Example 40], the IC50 worked out at 9 nM on IRAK4 [1] (0.1 nM IRAK4) and 0.0305 µM against IRAK4 [2] (setting [3]).

As for `COc1cc2nc(C3CCOCC3)cn2cc1C(=O)Nc1cccc(C(F)F)c1` [Example 125], the IC50 turned out to be 4 nM on IRAK4 [1] (0.1 nM IRAK4) and 0.0129 µM at IRAK4 [2]. Taken in the same sequence, the figures for `COc1cc2nc(C3CCOCC3)cn2cc1C(=O)Nc1cccc(Cl)c1OC` [Example 170] were 2 nM and 0.0053 µM. The matching figures for `CCOc1cc2nc(C(C)(C)C#N)cn2cc1C(=O)Nc1cccc(C(F)F)n1` [Example 74]: 5 nM and 0.0134 µM. As for `COc1cc2nc(C3CC4(CCOC4)C3)cn2cc1C(=O)Nc1cccc(C(F)(F)F)n1` (stereo not shown) [Example 38], the 50% inhibitory concentration (IC50) came to 2 nM on IRAK4 [1] (0.1 nM IRAK4) and 0.0048 µM at IRAK4 [2] (setting [3]).

`COc1cc2nc(C3CCOCC3)cn2cc1C(=O)Nc1cccc2c1CCCC2` [Example 118]: the IC50 against IRAK4 [1] (0.1 nM IRAK4) is 4 nM; on IRAK4 [2], 0.0174 µM. Consider `COc1cccc(NC(=O)c2cn3cc(CC4CCOCC4)nc3cc2OC)n1` [Example 10], for which the IC50 against IRAK4 [1] (0.1 nM IRAK4) is 8 nM; against IRAK4 [2] (setting [3]), 0.0293 µM. On to `COc1cc2nc(C3CC4CCC(C3)O4)cn2cc1C(=O)Nc1cccc(C(F)(F)F)n1` (stereo not shown) [Example 44], for which the half-maximal inhibitory concentration (IC50) against IRAK4 [1] (0.1 nM IRAK4) amounted to 3 nM; against IRAK4 [2] (setting [3]), 0.0088 µM. Regarding `COc1cc2nc(C3CCOCC3)cn2cc1C(=O)Nc1cccc(C)c1` [Example 143], the IC50 on IRAK4 [1] (0.1 nM IRAK4) turned out to be 10 nM; on IRAK4 [2], 0.0354 µM. Regarding `COc1cc2nc(C3CCOCC3)cn2cc1C(=O)Nc1cccc(C(F)(F)F)n1` [Example 203], the IC50 against IRAK4 [1] (0.1 nM IRAK4) is 4 nM; against IRAK4 [2], 0.0096 µM.

As for `COc1cc2nc(C3CCOC(C)(C)C3)cn2cc1C(=O)Nc1cccc(C(F)(F)F)n1` (stereo not shown) [Example 43], the 50% inhibitory concentration (IC50) against IRAK4 [1] (0.1 nM IRAK4) was 2 nM; on IRAK4 [2] (setting [3]) it was 0.0032 µM. As to `COc1cccc(NC(=O)c2cn3cc(C4C5COCC54)nc3cc2OC)n1` (stereo not shown) [Example 22], the IC50 stood at 5 nM against IRAK4 [1] (0.1 nM IRAK4) and 0.018 µM against IRAK4 [2]. With `COc1cccc(NC(=O)c2cn3cc(C[C@@H]4CCOC4)nc3cc2OC)n1` [Example 51, (R)-7-methoxy-N-(6-methoxypyridin-2-yl)-2-((tetrahydrofuran-3-yl)methyl)imidazo[1,2-a]pyridine-6-carboxamide], the IC50 on IRAK4 [1] (read-out: IRAK4 Biochemical Assay (10 μM ATP, 2 h) IC50, 0.1 nM IRAK4) stood at 3 nM. With `COc1cccc(NC(=O)c2cn3cc(CC(C)C#N)nc3cc2OC)n1` (stereo not shown) [Example 12], the IC50 against IRAK4 [1] (0.1 nM IRAK4) was 32 nM. Still for that read-out and setting: next, `COc1cc2nc(C3CCOCC3)cn2cc1C(=O)Nc1cccc(F)c1` [Example 165]: 24 nM. On IRAK4 [1] (0.1 nM IRAK4), `COc1cc2nc(C3CCOCC3)cn2cc1C(=O)Nc1scnc1C` [Example 105] returned an IC50 of 43 nM. On to `COc1cc2nc(C3CCOCC3)cn2cc1C(=O)N[C@@H]1CCCC[C@H]1OC` (racemic) [Example 155], for which the midpoint of inhibition at IRAK4 [1] (0.1 nM IRAK4), the IC50, lay at 230 nM. On the same count and under the same terms, next, `COc1cccc(NC(=O)c2ccc3nc(C4CCOCC4)cn3c2)n1` [Example 47]: 92 nM.

The compound `COc1cc2nc(C3CCOCC3)cn2cc1C(=O)Nc1cc(Cl)cc(Cl)c1` [Example 133] displayed an IC50 against IRAK4 [1] (0.1 nM IRAK4) of 255 nM. On the same count and under the same terms, under `COc1cc2nc(C3CCOCC3)cn2cc1C(=O)NC1C2CCOC2C12CCC2` (stereo not shown) [Example 124] stands 122 nM; under `COc1cc2nc(C3CCOCC3)cn2cc1C(=O)Nc1cccc(C)c1C` [Example 153], 19 nM; under `COc1cc2nc(C3CCOCC3)cn2cc1C(=O)Nc1cc(C)cc(C)n1` [Example 127], 200 nM. On IRAK4 [1] (0.1 nM IRAK4), `COc1cc2nc(C3CCOCC3)cn2cc1C(=O)Nc1cnsc1` [Example 138] yielded an IC50 of 65 nM. The compound `COc1cc2nc(C3CCOCC3)cn2cc1C(=O)Nc1cc(C)cc(C)c1OC` [Example 166] gave an IC50 against IRAK4 [1] (0.1 nM IRAK4) of 306 nM.

For `COc1cc(F)cc(NC(=O)c2cn3cc(C4CCOCC4)nc3cc2OC)c1` [Example 151], half-maximal inhibition against IRAK4 [1] (0.1 nM IRAK4) (IC50) was put at 46 nM. Still for that read-out and setting: next, `COc1cccc(NC(=O)c2cn3cc(C4CCC(OC)C4)nc3cc2OC)n1` (stereo not shown) [Example 17]: 2 nM; `CCOc1cc2nc(C3CCOCC3)cn2cc1C(=O)Nc1cccc(C(F)F)n1` [Example 73]: 1 nM; `CCOc1cc2nc(CCCOC)cn2cc1C(=O)Nc1cccc(C(F)F)n1` [Example 85]: 1 nM. On the same count and under the same terms, next, `COc1cccc(NC(=O)c2cn3cc(C(C)(C)CC#N)nc3cc2OC)n1` [Example 13]: 17 nM; `COc1cccc(NC(=O)c2cn3cc(C45CC(C#N)(C4)C5)nc3cc2OC)n1` [Example 19]: 6 nM.
